Data from ChEMBL document CHEMBL4814063, “Discovery of Diaminopyrimidine Carboxamide HPK1 Inhibitors as Preclinical Immunotherapy Tool Compounds” (ACS Med Chem Lett, 2021).
In brackets after ≈: the same amount, converted by molar mass.

Columns and labels:
[1] = Apparent permeability in dog MDCK-II cells; format: ADME, cell-based, Canis lupus familiaris
[2] = Solubility of compound at pH 7; format: physicochemical; conditions: buffer
[3] = Metabolic stability in rat hepatocytes assessed as intrinsic clearance; format: ADME, cell-based, Hepatocyte
[4] = MRT in C57BL/6 mouse at 10 mg/kg, po or 1 mg/kg, iv; format: ADME, organism-based; conditions: in vivo
[5] = Clearance in C57BL/6 mouse at 10 mg/kg, po or 1 mg/kg, iv; format: ADME, organism-based; conditions: in vivo
[6] = Fraction unbound clearance in C57BL/6 mouse at 10 mg/kg, po or 1 mg/kg, iv; format: ADME, organism-based; conditions: in vivo
[7] = Oral bioavailability in C57BL/6 mouse at 10 mg/kg; format: ADME, organism-based; conditions: in vivo
[8] = MRT in Wistar Han rat at 0.1 mg/kg, iv; format: ADME, organism-based; conditions: in vivo
[9] = Clearance in Wistar Han rat at 0.1 mg/kg, iv; format: ADME, organism-based; conditions: in vivo
[10] = Unbound clearance in Wistar Han rat at 0.1 mg/kg, iv; format: ADME, organism-based; conditions: in vivo
[11] = Volume of distribution in C57BL/6 mouse at 10 mg/kg, po or 1 mg/kg, iv; format: ADME, organism-based; conditions: in vivo
[12] = Volume of distribution in Wistar Han rat at 0.1 mg/kg, iv; format: ADME, organism-based; conditions: in vivo
[13] = Solubility of compound at pH 2; format: physicochemical; conditions: buffer
[14] = AUC in C57BL/6 mouse at 100 mg/kg, po measured after 8 hrs; format: ADME, organism-based; parameters: route oral, dose 100 mg/kg, time 8 hrs; conditions: in vivo
Dendritic cell [15] = experiment: […] in human monocyte derived dendritic cell assessed as increase in IL-6 production incubated for 24 hrs by ELISA; format: functional, cell-based
Dendritic cell [16] = experiment: […] in human monocyte derived dendritic cell assessed as increase in TNF-alpha production incubated for 24 hrs by ELISA; format: functional, cell-based

SMILES | Papp [1] [×10⁻⁶ cm/s] | solubility [2] [µM] | CLint [3] [µL/min/1e6 cells] | MRT [4] [min] | clearance [5] [mL/min/kg] | CL free [6] [mL/min/kg] | bioavailability [7] [%] | MRT [8] [min] | clearance [9] [mL/min/kg] | CL free [10] [mL/min/kg] | Vd [11] [L/kg] | Vd [12] [L/kg] | solubility [13] [µM] | AUC [14] [µM·h] | Activity (Dendritic cell [15]) | Activity (Dendritic cell [16])
COc1cc2c(cc1Nc1ncc(C(N)=O)c(Nc3ccccc3)n1)CN(C)CC2 | 2.5 | 92 (≈ 37.2 µg/mL) | 70 | 72 | 46 | 2532 | 17 | 126 | 19 | 415 |  |  | 166 (≈ 67.1 µg/mL) |  |  | 
COc1cc2c(cc1Nc1ncc(C(F)(F)F)c(Nc3ccccc3)n1)CN(C)CC2 |  | 96 (≈ 41.2 µg/mL) |  |  |  |  |  |  |  |  |  |  | 157 (≈ 67.4 µg/mL) |  |  | 
COc1cc2c(cc1Nc1ncc(C(N)=O)c(Nc3c(C)cccc3F)n1)CN(C)CC2 | 2.78 | 9 (≈ 3.93 µg/mL) | 69 |  |  |  |  |  |  |  |  |  |  |  |  | 
COc1cc2c(cc1Nc1ncc(C(N)=O)c(NC3CCCC3)n1)CN(C)CC2 | 3.6 | 7 (≈ 2.78 µg/mL) | 28 |  |  |  |  |  |  |  |  |  |  |  |  | 
COc1cc2c(cc1Nc1nccc(Nc3ccccc3)n1)CN(C)CC2 |  | 147 (≈ 53.1 µg/mL) |  |  |  |  |  |  |  |  |  |  | 160 (≈ 57.8 µg/mL) |  |  | 
COc1cc2c(cc1Nc1ncc(C(N)=O)c(Nc3ccccc3CO)n1)CN(C)CC2 | 0.54 |  |  | 39.6 | 67 | 792 | 7.9 | 120 | 88 | 548 | 29 | 65 |  | 102 |  | 

More lines, main results first:

Papp [1] [×10⁻⁶ cm/s] | solubility [2] [µM] | CLint [3] [µL/min/1e6 cells] | MRT [4] [min] | clearance [5] [mL/min/kg] | CL free [6] [mL/min/kg] | bioavailability [7] [%] | MRT [8] [min] | clearance [9] [mL/min/kg] | CL free [10] [mL/min/kg] | Vd [11] [L/kg] | Vd [12] [L/kg] | solubility [13] [µM] | AUC [14] [µM·h] | SMILES | Activity (Dendritic cell [15]) | Activity (Dendritic cell [16])
2.12 | < 2 | 33 |  |  |  |  |  |  |  |  |  |  |  | COc1cc2c(cc1Nc1ncc(C(N)=O)c(Nc3ccccc3Br)n1)CN(C)CC2 |  | 
3.1 |  |  | 19.8 | 52 | 2452 | 9 | 30 | 56 | 2057 | 1 | 1.8 |  |  | COc1cc2c(cc1Nc1ncc(C(N)=O)c(Nc3ccccc3[C@H](C)OC)n1)CN(C)CC2 |  | 
2.9 |  |  | 28.8 | 30 | 2170 | 13 | 78 | 28 | 1529 | 61 | 2 |  |  | COc1cc2c(cc1Nc1ncc(C(N)=O)c(Nc3c(F)cccc3C(F)(F)F)n1)CN(C)CC2 | Dose-Dependent Effect | Dose-Dependent Effect
 | 152 (≈ 57.1 µg/mL) |  |  |  |  |  |  |  |  |  |  | 179 (≈ 67.2 µg/mL) |  | COc1cc2c(cc1Nc1ncc(C)c(Nc3ccccc3)n1)CN(C)CC2 |  | 
